Measured values taken from patent US20250025443A1, “COMPOUNDS AND METHODS FOR TREATING CORONA VIRUSES” (CLEAR CREEK BIO, INC., priority 2021, published 2025).
Where two headings read alike, the source gives them in different places.

Molecular target: SARS-CoV-2 Papain-Like Protease (PLpro) (Severe acute respiratory syndrome coronavirus 2 (2019-nCoV) (SARS-CoV-2), UniProt P0DTD1)
Test: biochemical
Details: read-out: PLpro IC50
[1] = PLpro enzymatic fluorescence assay, class symbols
[2] = SARS-CoV-2 PLpro enzymatic fluorescence assay

Row | Structure (SMILES) | IC50 [1] | IC50 [2]
1 | Cc1nc(Cl)c(-c2cc(C3(NC(=O)c4cc(OC[C@@H]5CCN5C)ccc4C)CC3)c3cccnc3c2)s1 [Compound 812, (S)-N-(1-(7-(4-Chloro-2-methylthiazol-5-yl)quinolin-5-yl)cyclopropyl)-2-methyl-5-((1-methylazetidin-2-yl)methoxy)benzamide] | < 0.1 µM | 
2 | CCCC1COc2cc(C(=O)NC3(c4cccc5ccccc45)CC3)c(C)cc21 (stereo not drawn) [Compound 397, 5-Methyl-N-(1-(naphthalen-1-yl)cyclopropyl)-3-propyl-2,3-dihydrobenzofuran-6-carboxamide] |  | 0.1 to 1 µM
3 | CCCOc1cc(C2(NC(=O)c3cc(OCC4CCN4C)ccc3C)CC2)c2ccccc2c1 (stereo not drawn) [Compound 474, 2-Methyl-5-((1-methylazetidin-2-yl)methoxy)-N-(1-(3-propoxynaphthalen-1-yl)cyclopropyl)benzamide] |  | < 0.1 µM
4 | Cc1ncc(-c2cc(C3(NC(=O)c4cc(OC[C@@H]5CCN5C)ccc4C)CC3)c3cccnc3c2)o1 [Compound 716, (S)-2-Methyl-5-((1-methylazetidin-2-yl)methoxy)-N-(1-(7-(2-methyloxazol-5-yl)quinolin-5-yl)cyclopropyl)benzamide] | < 0.1 µM | 
5 | CNCCOc1ccc(C)c(C(=O)N[C@@H](c2cccc3ccccc23)C(F)(F)F)c1 [Compound 349, (S)-2-Methyl-5-(2-(methylamino)ethoxy)-N-(2,2,2-trifluoro-1-(naphthalen-1-yl)ethyl)benzamide] |  | 0.1 to 1 µM
6 | COc1cc(C2(NC(=O)c3cc(OC[C@@H]4C[C@@H](F)CN4C)ccc3C)CC2)c2cccnc2c1 [Compound 532, 5-(((2S,4R)-4-Fluoro-1-methylpyrrolidin-2-yl)methoxy)-N-(1-(7-methoxyquinolin-5-yl)cyclopropyl)-2-methylbenzamide] | < 0.1 µM | 
7 | COc1cc(C2(NC(=O)c3cc(OC[C@H](C)N)ccc3C)CC2)c2cccnc2c1 [Compound 530, (S)-5-(2-Aminopropoxy)-N-(1-(7-methoxyquinolin-5-yl)cyclopropyl)-2-methylbenzamide] |  | < 0.1 µM
8 | COc1cc(C2(NC(=O)c3cc(OC[C@@H]4CC[C@@H]5CNCCN54)ccc3C)CC2)c2cccnc2c1 [Compound 789] | < 0.1 µM | 
9 | Cc1cc2cc(CN)[nH]c2cc1C(=O)NC1(c2ccc(-c3ccccc3)cc2)CC1 [Compound 244, N-(1-([1,1′-Biphenyl]-4-yl)cyclopropyl)-2-(aminomethyl)-5-methyl-1H-indole-6-carboxamide] |  | > 5 µM
10 | Cc1ccc(OC2CNC(C)(C)C2)cc1C(=O)NC1(c2cccc3ccccc23)CC1 (stereo not drawn) [Compound 533, 5-((5,5-Dimethylpyrrolidin-3-yl)oxy)-2-methyl-N-(1-(naphthalen-1-yl)cyclopropyl)benzamide] |  | < 0.1 µM
11 | Cc1ccc(OCCN(C)C)cc1C(=O)NC1(c2ccccc2C)CC1 [Compound 282, 5-(2-(Dimethylamino)ethoxy)-2-methyl-N-(1-(o-tolyl)cyclopropyl)benzamide] |  | 1 to 5 µM
12 | CNCCOc1ccc(C)c(C(=O)NC2(c3cc(-c4ccn(C)n4)cc4ncccc34)CC2)c1 [Compound 647, 2-Methyl-N-(1-(7-(1-methyl-1H-pyrazol-3-yl)quinolin-5-yl)cyclopropyl)-5-(2-(methylamino)ethoxy)benzamide] | < 0.1 µM | 
13 | Cc1nnc(-c2cc(C3(NC(=O)c4cc(OC[C@@H]5CCN5C)ccc4C)CC3)c3cccnc3c2)s1 [Compound 691, (S)-2-Methyl-N-(1-(7-(5-methyl-1,3,4-thiadiazol-2-yl)quinolin-5-yl)cyclopropyl)-5-((1-methylazetidin-2-yl)methoxy)benzamide] | < 0.1 µM | 
14 | Cc1ccc(N2CCN(CCO)CC2)cc1C(=O)NC1(c2cccc3ccccc23)CC1 [Compound 505, 5-(4-(2-Hydroxyethyl)piperazin-1-yl)-2-methyl-N-(1-(naphthalen-1-yl)cyclopropyl)benzamide] |  | < 0.1 µM
15 | Cc1ccc(OCCNc2ccccc2)cc1C(=O)NC1(c2cccc3ccccc23)CC1 [Compound 315, 2-Methyl-N-(1-(naphthalen-1-yl)cyclopropyl)-5-(2-(phenylamino)ethoxy)benzamide] |  | 1 to 5 µM
16 | Cc1ccc(OCCN(C)C)cc1C(=O)NC1(c2ccccc2Cl)CC1 [Compound 326, N-(1-(2-chlorophenyl)cyclopropyl)-5-(2-(dimethylamino)ethoxy)-2-methylbenzamide] |  | 1 to 5 µM
17 | Cc1ccc(OC[C@@H]2CCN2)cc1C(=O)NC1(c2cc(-c3ccn(-c4ccccc4)n3)cc3ncccc23)CC1 [Compound 664, (S)-5-(Azetidin-2-ylmethoxy)-2-methyl-N-(1-(7-(1-phenyl-1H-pyrazol-3-yl)quinolin-5-yl)cyclopropyl)benzamide] | < 0.1 µM | 
18 | Cc1ccc(OCCN(C)C)cc1C(=O)NC1(c2ccc(O)cc2)CC1 [Compound 294, 5-(2-(Dimethylamino)ethoxy)-N-(1-(4-hydroxyphenyl)cyclopropyl)-2-methylbenzamide] |  | > 5 µM

Row | Structure (SMILES) | IC50 [1] | IC50 [2]
19 | Cc1cc2c(cc1C(=O)NC1(c3cccc4ccccc34)CC1)N(C)CC2 [Compound 210, 1,5-Dimethyl-N-(1-(naphthalen-1-yl)cyclopropyl)indoline-6-carboxamide] |  | 0.1 to 1 µM
20 | Cc1ccc(OC2COC2)cc1C(=O)N[C@H](C)c1cccc2ccccc12 [Compound 152, (R)-2-Methyl-N-(1-(naphthalen-1-yl)ethyl)-5-(oxetan-3-yloxy)benzamide] |  | 1 to 5 µM
21 | COc1cc(C2(NC(=O)c3cc(OC[C@@H](C)N)ccc3C)CC2)c2ccncc2c1 [Compound 537, (R)-5-(2-Aminopropoxy)-N-(1-(7-methoxyisoquinolin-5-yl)cyclopropyl)-2-methylbenzamide] | < 0.1 µM | 
22 | CC[S+]([O-])c1cc(C2(NC(=O)c3cc(OCCN(C)C)ccc3C)CC2)c2ccccc2c1 (stereo not drawn) [Compound 423, 5-(2-(Dimethylamino)ethoxy)-N-(1-(3-(ethylsulfinyl)naphthalen-1-yl)cyclopropyl)-2-methylbenzamide] |  | < 0.1 µM
23 | Cc1ccc(OC[C@@H]2CCN2C)cc1C(=O)NC1(c2cc(-c3cnc(N4CCCCC4)nc3)cc3ncccc23)CC1 [Compound 701, (S)-2-Methyl-5-((1-methylazetidin-2-yl)methoxy)-N-(1-(7-(2-(piperidin-1-yl)pyrimidin-5-yl)quinolin-5-yl)cyclopropyl)benzamide] | < 0.1 µM | 
24 | Cc1ccc(OCCN(C)C)cc1C(=O)NC1(c2cccc(C3CCCC3)c2)CC1 [Compound 276, N-(1-(3-Cyclopentylphenyl)cyclopropyl)-5-(2-(dimethylamino)ethoxy)-2-methylbenzamide] |  | > 5 µM
25 | COc1cc(C2(NC(=O)c3cc(OC[C@@H]4CCN4C)ccc3C)CC2)c2ccc(C(F)(F)F)nc2c1 [Compound 817, (S)-N-(1-(7-Methoxy-2-(trifluoromethyl)quinolin-5-yl)cyclopropyl)-2-methyl-5-((1-methylazetidin-2-yl)methoxy)benzamide] | < 0.1 µM | 
26 | Cc1cc2cc(-c3ccccn3)[nH]c2cc1C(=O)NC1(c2cccc3ccccc23)CC1 [Compound 234, 5-Methyl-N-(1-(naphthalen-1-yl)cyclopropyl)-2-(pyridin-2-yl)-1H-indole-6-carboxamide] |  | 0.1 to 1 µM
27 | Cc1ccc(OCC2CCN2CC(F)(F)F)cc1C(=O)NC1(c2cccc3ccccc23)CC1 (stereo not drawn) [Compound 396, 2-Methyl-N-(1-(naphthalen-1-yl)cyclopropyl)-5-((1-(2,2,2-trifluoroethyl)azetidin-2-yl)methoxy)benzamide] |  | 1 to 5 µM
28 | Cc1ccc2c(C3(NC(=O)c4cc(OC[C@@H]5CCN5C)ccc4C)CC3)cc(CCC(F)(F)F)cc2n1 [Compound 815, (S)-2-Methyl-N-(1-(2-methyl-7-(3,3,3-trifluoropropyl)quinolin-5-yl)cyclopropyl)-5-((1-methylazetidin-2-yl)methoxy)benzamide] | < 0.1 µM | 
29 | COc1cc(C2(NC(=O)c3cc(OCC(C)N)ccc3C)CC2)c2ccccc2c1 (stereo not drawn) [Compound 445, 5-(2-Aminopropoxy)-N-(1-(3-methoxynaphthalen-1-yl)cyclopropyl)-2-methylbenzamide] |  | < 0.1 µM
30 | Cc1ccc2c(C3(NC(=O)c4cc(OC[C@@H]5CCN5C)ccc4C)CC3)cc(NCC(F)(F)F)cc2n1 [Compound 826, (S)-2-Methyl-N-(1-(2-methyl-7-((2,2,2-trifluoroethyl)amino)quinolin-5-yl)cyclopropyl)-5-((1-methylazetidin-2-yl)methoxy)benzamide] | < 0.1 µM | 
31 | Cc1cc(-c2cc(C3(NC(=O)c4cc(OC[C@@H]5CCN5C)ccc4C)CC3)c3cccnc3c2)n[nH]1 [Compound 651, (S)-2-Methyl-N-(1-(7-(5-methyl-1H-pyrazol-3-yl)quinolin-5-yl)cyclopropyl)-5-((1-methylazetidin-2-yl)methoxy)benzamide] | < 0.1 µM | 
32 | Cc1ccc(OCC2CCN2C)cc1C(=O)NC1(c2cccc3c2OCCO3)CC1 (stereo not drawn) [Compound 432, N-(1-(2,3-Dihydrobenzo[b][1,4]dioxin-5-yl)cyclopropyl)-2-methyl-5-((1-methylazetidin-2-yl)methoxy)benzamide] |  | 0.1 to 1 µM
33 | COCC(NC(=O)c1cc([N+](=O)[O-])ccc1C)c1cccc2ccccc12 (stereo not drawn) [Compound 108, N-(2-Methoxy-1-(naphthalen-1-yl)ethyl)-2-methyl-5-nitrobenzamide] |  | > 5 µM
34 | COc1cc(C2(NC(=O)c3cc(OC[C@@H]4CCCCN4)ccc3C)CC2)c2cccnc2c1 [Compound 550, (S)-N-(1-(7-Methoxyquinolin-5-yl)cyclopropyl)-2-methyl-5-(piperidin-2-ylmethoxy)benzamide] |  | < 0.1 µM
35 | Cc1ccc(OC[C@@H]2CCN2)cc1C(=O)NC1(c2cc(-c3ccc(F)cc3)cc3ncccc23)CC1 [Compound 675, (S)-5-(Azetidin-2-ylmethoxy)-N-(1-(7-(4-fluorophenyl)quinolin-5-yl)cyclopropyl)-2-methylbenzamide] | < 0.1 µM | 
36 | Cc1cc2cc(CN)[nH]c2cc1C(=O)NC1(c2cccc3ccccc23)CC1 [Compound 170, 2-(Aminomethyl)-5-methyl-N-(1-(naphthalen-1-yl)cyclopropyl)-1H-indole-6-carboxamide] |  | < 0.1 µM
